Experimental data taken from PubChem BioAssay (NCI).
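Five compound concentrations were applied to cells in 96-well plates for 48 hours; endpoints were derived by simple linear interpolation of the resulting dose-response curve. GI50 marks 50% less growth. TGI denotes the concentration required for complete inhibition of growth.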

How the values were obtained:
Assay in all cases: inhibition of tumour cell growth, NCI panel, 48 h
CCRF-CEM leukemia = tested on: CCRF-CEM leukemia
EKVX NSCLC = tested on: EKVX NSCLC
HL-60(TB) leukemia = tested on: HL-60(TB) leukemia
KM12 colon = tested on: KM12 colon
NCI-H226 lung = tested on: NCI-H226 lung
SF-295 CNS = tested on: SF-295 CNS
SK-MEL-28 melanoma = tested on: SK-MEL-28 melanoma
UO-31 renal = tested on: UO-31 renal
A498 renal = tested on: A498 renal

Row | SMILES | GI50 (CCRF-CEM leukemia) | TGI (CCRF-CEM leukemia) | GI50 (EKVX NSCLC) | TGI (EKVX NSCLC) | GI50 (HL-60(TB) leukemia) | TGI (HL-60(TB) leukemia) | GI50 (KM12 colon) | TGI (KM12 colon) | GI50 (NCI-H226 lung) | TGI (NCI-H226 lung) | GI50 (SF-295 CNS) | TGI (SF-295 CNS) | GI50 (SK-MEL-28 melanoma) | TGI (SK-MEL-28 melanoma) | GI50 (UO-31 renal) | TGI (UO-31 renal) | TGI (A498 renal)
1 | O=c1c(-c2ccccc2)coc2cc(OC/C(=N/O)c3ccc(F)cc3)ccc12 | 26 µM | > 100 µM | 8.59 µM | 26.1 µM | 15 µM | 89.7 µM | 14.5 µM | 33.1 µM | 25.1 µM | 77.7 µM | 25.5 µM | 82.4 µM | 19.2 µM | > 100 µM | 17.4 µM | 50.2 µM | 
2 | COCCOCOC(C)(C)[C@H](CCOC(C)=O)O[Si](c1ccccc1)(c1ccccc1)C(C)(C)C |  | 23.7 µM |  | > 100 µM |  | 10.4 µM |  | > 100 µM |  | 19.8 µM |  | 55.5 µM |  | > 100 µM |  | 36.9 µM | 68.4 µM
3 | NC(=O)C12CC3CC(CC(Br)(C3)C1)C2 |  | > 100 µM |  | > 100 µM |  | > 100 µM |  | > 100 µM |  |  |  | > 100 µM |  | > 100 µM |  | > 100 µM | > 100 µM
4 | O=C(CCc1nc(=S)[nH][nH]1)Nc1cccc(C(F)(F)F)c1 |  | > 100 µM |  | > 100 µM |  | > 100 µM |  | > 100 µM |  | > 100 µM |  | > 100 µM |  | > 100 µM |  | > 100 µM | > 100 µM
5 | COc1ccc(-c2onc(-c3c(C)cc(C)cc3C)c2C2=NCCN2)cc1 |  | > 100 µM |  | > 100 µM |  | 59.3 µM |  | > 100 µM |  | 89.8 µM |  | 35.3 µM |  | 48.2 µM |  | > 100 µM | 
6 | CCCCc1c2c(nc3c1CCc1cc4cc5c(nc4nc1-3)-c1nc3c(c(CCCC)c1CC5)CCC/C3=C\c1ccccc1)/C(=C/c1ccccc1)CCC2 |  | > 100 µM |  | > 100 µM |  | > 100 µM |  | > 100 µM |  | > 100 µM |  | > 100 µM |  | > 100 µM |  | > 100 µM | 
7 | CC(=O)NNc1nc(C)c(C(=O)/C=C/c2ccc(/C=C/C(=O)c3sc(NNC(C)=O)nc3C)cc2)s1 |  | > 100 µM |  | > 100 µM |  | > 100 µM |  | > 100 µM |  | > 100 µM |  | > 100 µM |  | > 100 µM |  | > 100 µM | 
8 | CCC1C(=O)OCc2c1cc1n(c2=O)C(CC)c2c-1nc1ccccc1c2Cl (centres undefined) |  | > 100 µM |  | 80.4 µM |  | 57.3 µM |  | 96.6 µM |  | > 100 µM |  | 66 µM |  | > 100 µM |  | > 100 µM | 58.1 µM
9 | C#C[C@H]1CCCCCC1O (some centres undefined) |  | > 100 µM |  | > 100 µM |  | > 100 µM |  | > 100 µM |  | > 100 µM |  | > 100 µM |  | > 100 µM |  | > 100 µM | > 100 µM
10 | CCCCCCCCCCCCCP(=O)(NCC(N)=O)OCC (centres undefined) |  | 47.7 µM |  | 41 µM |  | 38.2 µM |  | 34 µM |  | 33.5 µM |  | 31.2 µM |  | 32.3 µM |  | 27.1 µM | 95.7 µM
11 | CN1CCc2c1nc(-c1cccnc1)c1c2N(C)CC1 |  | > 100 µM |  | > 100 µM |  | > 100 µM |  | > 100 µM |  |  |  | > 100 µM |  |  |  | > 100 µM | > 100 µM
12 | COC(=O)C#CCC1CCCC1C1SCCS1 (centres undefined) |  | 72.3 µM |  | > 100 µM |  | > 100 µM |  | > 100 µM |  | > 100 µM |  | > 100 µM |  | > 100 µM |  | > 100 µM | > 100 µM
